According to ChEMBL document CHEMBL1141871, “Binding of amine-substituted N1-benzenesulfonylindoles at human 5-HT6 serotonin receptors” (Bioorg Med Chem Lett, 2005):

Target: 5-hydroxytryptamine receptor 6 (Homo sapiens, UniProt P50406)
Test: Displacement of [3H]LSD from human 5HT6 receptor expressed in HEK293 cells
Format: cell-based

5-hydroxytryptamine receptor 6, sequence (P50406 whole entry): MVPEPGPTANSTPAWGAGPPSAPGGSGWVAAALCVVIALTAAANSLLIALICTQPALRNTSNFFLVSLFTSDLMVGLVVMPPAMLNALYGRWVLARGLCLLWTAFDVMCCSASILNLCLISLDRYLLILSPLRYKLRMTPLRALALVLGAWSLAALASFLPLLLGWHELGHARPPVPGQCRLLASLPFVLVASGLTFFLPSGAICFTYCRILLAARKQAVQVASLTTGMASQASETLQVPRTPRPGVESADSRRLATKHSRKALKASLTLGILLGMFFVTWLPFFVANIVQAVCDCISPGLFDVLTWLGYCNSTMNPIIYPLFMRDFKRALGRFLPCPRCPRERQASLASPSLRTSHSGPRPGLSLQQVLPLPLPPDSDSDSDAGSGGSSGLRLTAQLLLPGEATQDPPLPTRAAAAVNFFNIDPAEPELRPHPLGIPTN

SMILES | Ki [nM]
CNc1cc(NC)c2ccn(S(=O)(=O)c3ccccc3)c2c1 | 26
c1cc(N2CCNCC2)c2cc[nH]c2c1 | 2700
Nc1ccc(S(=O)(=O)n2ccc3c(N4CCNCC4)cccc32)cc1 | 0.4
Nc1ccc(S(=O)(=O)n2ccc3c([N+](=O)[O-])cc([N+](=O)[O-])cc32)cc1 | 980
CNc1cccc2c1ccn2S(=O)(=O)c1ccc(N)cc1 | 21

Further compounds by falling Ki, results first:

Ki [nM] | SMILES
10 | Nc1ccc(S(=O)(=O)n2ccc3ccccc32)cc1
7 | CNc1ccc2ccn(S(=O)(=O)c3ccc(N)cc3)c2c1
1.9 | CNc1cc(NC)c2ccn(S(=O)(=O)c3ccc(N)cc3)c2c1
